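Test compounds were applied to cells in 96-well plates for 48 hours at 5 doses. GI50 marks 50% less growth.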 Calls of active or inactive are those of the source. Rule as the data show it: active = GI50 up to about 1.1 µM and inactive = higher.
Tests used:
Assay in all cases: NCI-60 cell line screen, 48 h
Malme-3M = tested on: Malme-3M
NCI-H226 = tested on: NCI-H226
M14 = tested on: M14
786-0 = tested on: 786-0
SF-539 = tested on: SF-539
MOLT-4 = tested on: MOLT-4
SW-620 = tested on: SW-620
HCT-116 = tested on: HCT-116
K562 = tested on: K562
OVCAR-3 = tested on: OVCAR-3
A549 = tested on: A549
SK-MEL-5 = tested on: SK-MEL-5
MDA-N = tested on: MDA-N
DU-145 = tested on: DU-145
SN12C = tested on: SN12C
MCF7 = tested on: MCF7
HOP-92 = tested on: HOP-92
NCI-H23 = tested on: NCI-H23
SK-MEL-2 = tested on: SK-MEL-2

SMILES | GI50 (Malme-3M) | GI50 (NCI-H226) | GI50 (M14) | GI50 (786-0) | GI50 (SF-539) | GI50 (MOLT-4) | GI50 (SW-620) | GI50 (HCT-116) | GI50 (K562) | GI50 (OVCAR-3) | GI50 (A549) | GI50 (SK-MEL-5) | GI50 (MDA-N) | GI50 (DU-145) | GI50 (SN12C) | GI50 (MCF7) | GI50 (HOP-92) | GI50 (NCI-H23) | GI50 (SK-MEL-2)
CC(=O)Nc1ccc(Nc2cc(O)nc(O)n2)cc1 | > 100 µM (inactive) | > 100 µM (inactive) | > 100 µM (inactive) | > 100 µM (inactive) | > 100 µM (inactive) | 18.2 µM (inactive) | > 100 µM (inactive) | > 100 µM (inactive) | > 100 µM (inactive) | > 100 µM (inactive) | > 100 µM (inactive) | > 100 µM (inactive) | > 100 µM (inactive) | > 100 µM (inactive) | > 100 µM (inactive) | > 100 µM (inactive) | > 100 µM (inactive) | – | –
O=C(O)C1(Nc2ccc(Cl)cc2)CCCC1 | > 100 µM (inactive) | > 100 µM (inactive) | > 100 µM (inactive) | > 100 µM (inactive) | – | – | > 100 µM (inactive) | 76.4 µM (inactive) | > 100 µM (inactive) | > 100 µM (inactive) | > 100 µM (inactive) | > 100 µM (inactive) | > 100 µM (inactive) | > 100 µM (inactive) | > 100 µM (inactive) | > 100 µM (inactive) | > 100 µM (inactive) | > 100 µM (inactive) | > 100 µM (inactive)
CC1(C)CC2=NOS3=C2C(=NO3)C1c1ccccn1 (centres undefined) | 46.9 µM (inactive) | – | 40.7 µM (inactive) | 34.7 µM (inactive) | 64 µM (inactive) | 34.3 µM (inactive) | 69.5 µM (inactive) | 48.8 µM (inactive) | 24 µM (inactive) | 31 µM (inactive) | 83.2 µM (inactive) | 17.8 µM (inactive) | 30.9 µM (inactive) | > 100 µM (inactive) | > 100 µM (inactive) | > 100 µM (inactive) | > 100 µM (inactive) | > 100 µM (inactive) | > 100 µM (inactive)
c1ccc(C[N+]23C(CC[C@H]2c2ccccc2)CC[C@H]3c2ccccc2)cc1 (some centres undefined) | 18.2 µM (inactive) | 22.1 µM (inactive) | 21.6 µM (inactive) | 32.4 µM (inactive) | – | 27.9 µM (inactive) | 43.4 µM (inactive) | 28.8 µM (inactive) | 9.38 µM (inactive) | 14.3 µM (inactive) | 36.6 µM (inactive) | 5.43 µM (inactive) | 21.2 µM (inactive) | 32.9 µM (inactive) | 37.5 µM (inactive) | 24.4 µM (inactive) | 13.2 µM (inactive) | – | 29.9 µM (inactive)
CCc1n[nH]c(=O)n1/N=C(\C)c1ccccc1 | > 100 µM (inactive) | > 100 µM (inactive) | > 100 µM (inactive) | > 100 µM (inactive) | > 100 µM (inactive) | > 100 µM (inactive) | > 100 µM (inactive) | > 100 µM (inactive) | > 100 µM (inactive) | > 100 µM (inactive) | > 100 µM (inactive) | > 100 µM (inactive) | > 100 µM (inactive) | > 100 µM (inactive) | > 100 µM (inactive) | > 100 µM (inactive) | – | > 100 µM (inactive) | > 100 µM (inactive)
C/C=C\C(CC(=O)NCCc1cn(C(=O)OCc2ccccc2)c2ccccc12)CC(=O)OC (centres undefined) | > 100 µM (inactive) | – | 86.7 µM (inactive) | > 100 µM (inactive) | – | 48 µM (inactive) | > 100 µM (inactive) | 91.4 µM (inactive) | 71.1 µM (inactive) | 69.7 µM (inactive) | 50.5 µM (inactive) | 34.9 µM (inactive) | 79.1 µM (inactive) | > 100 µM (inactive) | – | 46.6 µM (inactive) | 69 µM (inactive) | 89.5 µM (inactive) | > 100 µM (inactive)
O=C1CC(O)c2c(Cl)sc(Cl)c21 (centres undefined) | – | 15.1 µM (inactive) | 14.2 µM (inactive) | 4.14 µM (inactive) | 9.04 µM (inactive) | 2.81 µM (inactive) | 3.13 µM (inactive) | 3.83 µM (inactive) | 3.37 µM (inactive) | 5.4 µM (inactive) | 16.4 µM (inactive) | 17.1 µM (inactive) | 9.33 µM (inactive) | 12.9 µM (inactive) | 11.3 µM (inactive) | 5.45 µM (inactive) | 3.11 µM (inactive) | 15.3 µM (inactive) | 13.5 µM (inactive)
COC1C=C(NCC2(CO)CCC2)N=C(N)N1 (centres undefined) | > 100 µM (inactive) | > 100 µM (inactive) | > 100 µM (inactive) | > 100 µM (inactive) | – | > 100 µM (inactive) | > 100 µM (inactive) | > 100 µM (inactive) | > 100 µM (inactive) | > 100 µM (inactive) | > 100 µM (inactive) | > 100 µM (inactive) | > 100 µM (inactive) | > 100 µM (inactive) | > 100 µM (inactive) | 95.1 µM (inactive) | > 100 µM (inactive) | 24.8 µM (inactive) | > 100 µM (inactive)
O=C(O)[C@H]1CCCN1CP(=O)(O)CN1CCC[C@@H]1C(=O)O | > 100 µM (inactive) | – | > 100 µM (inactive) | > 100 µM (inactive) | – | > 100 µM (inactive) | > 100 µM (inactive) | > 100 µM (inactive) | > 100 µM (inactive) | > 100 µM (inactive) | > 100 µM (inactive) | > 100 µM (inactive) | > 100 µM (inactive) | > 100 µM (inactive) | > 100 µM (inactive) | > 100 µM (inactive) | > 100 µM (inactive) | > 100 µM (inactive) | > 100 µM (inactive)
O=C1C2Cc3c(n(C(=O)c4ccccc4)c4ccccc34)CC2C(=O)N1c1ccc(Nc2ccc(N3C(=O)C4Cc5c(n(C(=O)c6ccccc6)c6ccccc56)CC4C3=O)cc2)cc1 (centres undefined) | > 100 µM (inactive) | > 100 µM (inactive) | 30.9 µM (inactive) | > 100 µM (inactive) | – | > 100 µM (inactive) | – | > 100 µM (inactive) | > 100 µM (inactive) | > 100 µM (inactive) | > 100 µM (inactive) | 58.1 µM (inactive) | > 100 µM (inactive) | > 100 µM (inactive) | > 100 µM (inactive) | > 100 µM (inactive) | 46 µM (inactive) | > 100 µM (inactive) | –
N#Cc1nc(-c2ccc(-c3nc(C#N)c(N)o3)cc2)oc1N | > 10 µM (inactive) | > 10 µM (inactive) | > 10 µM (inactive) | > 10 µM (inactive) | > 10 µM (inactive) | > 10 µM (inactive) | > 10 µM (inactive) | > 10 µM (inactive) | > 10 µM (inactive) | – | > 10 µM (inactive) | > 10 µM (inactive) | > 10 µM (inactive) | > 10 µM (inactive) | > 10 µM (inactive) | > 10 µM (inactive) | > 10 µM (inactive) | > 10 µM (inactive) | –
CC1=CCC[C@@](C)(O)[C@@H]2C[C@H]3C(CSc4ccccc4)C(=O)O[C@H]3[C@@H](O2)[C@H](C)CCC1 (some centres undefined) | 13.7 µM (inactive) | – | 13.7 µM (inactive) | 20.3 µM (inactive) | 16.4 µM (inactive) | 7.13 µM (inactive) | 27 µM (inactive) | 21.4 µM (inactive) | 9.08 µM (inactive) | 13 µM (inactive) | 10.5 µM (inactive) | 14.5 µM (inactive) | 24.5 µM (inactive) | 25.6 µM (inactive) | 38.2 µM (inactive) | 13.8 µM (inactive) | 26.9 µM (inactive) | 16.8 µM (inactive) | 17.2 µM (inactive)
CCOC(=O)[C@@H]1ON2O[C@@H](OC3CCCC3(c3ccccc3)c3ccccc3)C[C@H]3OC(=O)[C@@H]1C32 (some centres undefined) | – | 56.6 µM (inactive) | 16.6 µM (inactive) | 30.2 µM (inactive) | 24.9 µM (inactive) | 29.9 µM (inactive) | 24.7 µM (inactive) | 33.8 µM (inactive) | – | 23.4 µM (inactive) | < 0.01 µM (active) | 32 µM (inactive) | 20.7 µM (inactive) | 22.6 µM (inactive) | 32.8 µM (inactive) | 20.8 µM (inactive) | 64.6 µM (inactive) | 18.4 µM (inactive) | –
O=C(Nc1ccccc1)N1N=C(c2ccccc2)C1c1ccccc1 (centres undefined) | 30.5 µM (inactive) | 18.8 µM (inactive) | 20 µM (inactive) | 16.4 µM (inactive) | 14.9 µM (inactive) | – | 35.8 µM (inactive) | 17.9 µM (inactive) | – | 20.7 µM (inactive) | 25.3 µM (inactive) | 22.1 µM (inactive) | 27.4 µM (inactive) | > 100 µM (inactive) | 48 µM (inactive) | 20.2 µM (inactive) | 23.4 µM (inactive) | 23.3 µM (inactive) | –
O=C1c2cccc3cccc(c23)C(=O)N1CCCNOCCONCCCN1C(=O)c2cccc3cccc(c23)C1=O | 91.2 µM (inactive) | 74.6 µM (inactive) | 62.4 µM (inactive) | 33.5 µM (inactive) | – | 12.1 µM (inactive) | 66.4 µM (inactive) | 27.4 µM (inactive) | 27 µM (inactive) | 94 µM (inactive) | 95.9 µM (inactive) | 58.5 µM (inactive) | > 100 µM (inactive) | > 100 µM (inactive) | – | 64.7 µM (inactive) | 56 µM (inactive) | 99.8 µM (inactive) | > 100 µM (inactive)
Nc1cc(CO)cc(Nc2c3ccccc3nc3ccccc23)c1 | 16.5 µM (inactive) | 18.2 µM (inactive) | 17.3 µM (inactive) | 16.7 µM (inactive) | 17.6 µM (inactive) | 4.5 µM (inactive) | 12.8 µM (inactive) | 15.1 µM (inactive) | 14.2 µM (inactive) | 18.2 µM (inactive) | 18.2 µM (inactive) | 17 µM (inactive) | 20.6 µM (inactive) | 27.3 µM (inactive) | 18.9 µM (inactive) | 15.5 µM (inactive) | – | 15.9 µM (inactive) | 14.1 µM (inactive)
